ChEMBL document CHEMBL1671722, “Comparative in vitro activity profiles of novel bis-indole antibacterials against gram-positive and gram-negative clinical isolates” (Antimicrob Agents Chemother, 2010)
Converted amounts (≈) assume the structure as drawn.

Legend:
Format in all cases: functional
Haemophilus influenzae = assay: Antimicrobial activity against Haemophilus influenzae by broth microdilution method
Escherichia coli = assay: Antimicrobial activity against Escherichia coli by broth microdilution method
Klebsiella pneumoniae [1] = assay: Antimicrobial activity against Klebsiella pneumoniae by broth microdilution method
Klebsiella pneumoniae [2] = assay: Antimicrobial activity against ESBL-production Klebsiella pneumoniae by broth microdilution method
Proteus mirabilis = assay: Antimicrobial activity against Proteus mirabilis by broth microdilution method
Acinetobacter baumannii [3] = assay: Antimicrobial activity against Acinetobacter baumannii by broth microdilution method
Acinetobacter baumannii [4] = assay: Antimicrobial activity against multiple dug-resistant Acinetobacter baumannii by broth microdilution method
Pseudomonas aeruginosa = assay: Antimicrobial activity against Pseudomonas aeruginosa by broth microdilution method
Burkholderia cepacia = assay: Antimicrobial activity against Burkholderia cepacia by broth microdilution method
Staphylococcus aureus [5] = assay: Antimicrobial activity against methicillin-susceptible Staphylococcus aureus by broth microdilution method
Staphylococcus aureus [6] = assay: Antimicrobial activity against methicillin-resistant Staphylococcus aureus by broth microdilution method
[7] = system: Staphylococcus epidermidis; assay: Antimicrobial activity against methicillin-susceptible Staphylococcus epidermidis by broth microdilution method
[8] = system: Staphylococcus epidermidis; assay: Antimicrobial activity against methicillin-resistant Staphylococcus epidermidis by broth microdilution method
Enterococcus faecalis [9] = assay: Antimicrobial activity against vancomycin-susceptible Enterococcus faecalis by broth microdilution method
Enterococcus faecalis [10] = assay: Antimicrobial activity against vancomycin-resistant Enterococcus faecalis by broth microdilution method
Enterococcus faecium [11] = assay: Antimicrobial activity against vancomycin-susceptible Enterococcus faecium by broth microdilution method
Enterococcus faecium [12] = assay: Antimicrobial activity against vancomycin-resistant Enterococcus faecium by broth microdilution method
Streptococcus pneumoniae [13] = assay: Antimicrobial activity against penicillin-susceptible Streptococcus pneumoniae by broth microdilution method
Streptococcus pneumoniae [14] = assay: Antimicrobial activity against penicillin-intermediate Streptococcus pneumoniae by broth microdilution method
Streptococcus pneumoniae [15] = assay: Antimicrobial activity against penicillin-resistant Streptococcus pneumoniae by broth microdilution method
Streptococcus agalactiae = assay: Antimicrobial activity against Streptococcus agalactiae by broth microdilution method
Serratia marcescens = assay: Antimicrobial activity against Serratia marcescens by broth microdilution method
Clostridioides difficile = assay: Antimicrobial activity against Clostridium difficile by broth microdilution method

With `C[C@H]1COc2c(N3CCN(C)CC3)c(F)cc3c(=O)c(C(=O)O)cn1c23.C[C@H]1COc2c(N3CCN(C)CC3)c(F)cc3c(=O)c(C(=O)O)cn1c23.O` [LEVOFLOXACIN] the MIC (Haemophilus influenzae) was 0.08 µg/mL, the MIC50 (Haemophilus influenzae) was 0.015 µg/mL and the MIC90 (Haemophilus influenzae) was 0.06 µg/mL.
In the case of `O=C(O)c1cn(C2CC2)c2cc(N3CCNCC3)c(F)cc2c1=O` [CIPROFLOXACIN], the MIC50 (Escherichia coli) is reported as 2 µg/mL (≈ 6.04 µM), the MIC90 (Escherichia coli) is reported as 4 µg/mL (≈ 12.1 µM) and the MIC50 (Klebsiella pneumoniae [1]) is reported as > 32 µg/mL. For the same compound, the MIC90 (Klebsiella pneumoniae [1]) was > 32 µg/mL, the MIC50 (Klebsiella pneumoniae [2]) was > 8 µg/mL and the MIC90 (Klebsiella pneumoniae [2]) was > 8 µg/mL. The MIC50 (Proteus mirabilis) was 2 µg/mL (≈ 6.04 µM), the MIC90 (Proteus mirabilis) was > 8 µg/mL and the MIC50 (Acinetobacter baumannii [3]) was 0.25 µg/mL (≈ 0.754 µM). For the same compound, the MIC90 (Acinetobacter baumannii [3]) was > 2 µg/mL, the MIC50 (Acinetobacter baumannii [4]) was 2 µg/mL (≈ 6.04 µM) and the MIC90 (Acinetobacter baumannii [4]) was 4 µg/mL (≈ 12.1 µM). The MIC (Pseudomonas aeruginosa) was > 8 µg/mL, the MIC50 (Pseudomonas aeruginosa) was > 8 µg/mL and the MIC90 (Pseudomonas aeruginosa) was > 8 µg/mL. It also gave an MIC50 (Burkholderia cepacia) of 2 µg/mL (≈ 6.04 µM) and an MIC90 (Burkholderia cepacia) of 2 µg/mL (≈ 6.04 µM).
Work on `CN[C@H](CC(C)C)C(=O)N[C@H]1C(=O)N[C@@H](CC(N)=O)C(=O)N[C@H]2C(=O)N[C@H]3C(=O)N[C@H](C(=O)N[C@H](C(=O)O)c4cc(O)cc(O)c4-c4cc3ccc4O)[C@H](O)c3ccc(c(Cl)c3)Oc3cc2cc(c3O[C@@H]2O[C@H](CO)[C@@H](O)[C@H](O)[C@H]2O[C@H]2C[C@](C)(N)[C@H](O)[C@H](C)O2)Oc2ccc(cc2Cl)[C@H]1O` [VANCOMYCIN] yielded an MIC50 (Staphylococcus aureus [5]) of 0.5 µg/mL (≈ 0.345 µM), an MIC90 (Staphylococcus aureus [5]) of 1 µg/mL (≈ 0.69 µM) and an MIC50 (Staphylococcus aureus [6]) of 0.5 µg/mL (≈ 0.345 µM). The MIC90 (Staphylococcus aureus [6]) was 1 µg/mL (≈ 0.69 µM), the MIC90 [7] was 2 µg/mL (≈ 1.38 µM) and the MIC50 [8] was 2 µg/mL (≈ 1.38 µM). For the same compound, the MIC90 [8] was 2 µg/mL (≈ 1.38 µM), the MIC50 (Enterococcus faecalis [9]) was 1 µg/mL (≈ 0.69 µM) and the MIC90 (Enterococcus faecalis [9]) was 2 µg/mL (≈ 1.38 µM). The MIC (Enterococcus faecalis [10]) was > 64 µg/mL, the MIC50 (Enterococcus faecalis [10]) was > 64 µg/mL and the MIC90 (Enterococcus faecalis [10]) was > 64 µg/mL. The MIC50 (Enterococcus faecium [11]) was 0.5 µg/mL (≈ 0.345 µM), the MIC90 (Enterococcus faecium [11]) was 1 µg/mL (≈ 0.69 µM) and the MIC50 (Enterococcus faecium [12]) was > 64 µg/mL. The MIC90 (Enterococcus faecium [12]) was > 64 µg/mL, the MIC50 (Streptococcus pneumoniae [13]) was 0.25 µg/mL (≈ 0.173 µM) and the MIC90 (Streptococcus pneumoniae [13]) was 0.25 µg/mL (≈ 0.173 µM). The MIC (Streptococcus pneumoniae [14]) was 0.25 µg/mL (≈ 0.173 µM), the MIC50 (Streptococcus pneumoniae [14]) was 0.25 µg/mL (≈ 0.173 µM) and the MIC90 (Streptococcus pneumoniae [14]) was 0.25 µg/mL (≈ 0.173 µM). It also gave an MIC (Streptococcus pneumoniae [15]) of 0.25 µg/mL (≈ 0.173 µM), an MIC50 (Streptococcus pneumoniae [15]) of 0.25 µg/mL (≈ 0.173 µM) and an MIC90 (Streptococcus pneumoniae [15]) of 0.25 µg/mL (≈ 0.173 µM). It also gave an MIC50 (Streptococcus agalactiae) of 1 µg/mL (≈ 0.69 µM) and an MIC90 (Streptococcus agalactiae) of 1 µg/mL (≈ 0.69 µM).
Work on GENTAMICIN yielded an MIC50 (Escherichia coli) of 1 µg/mL, an MIC90 (Escherichia coli) of 1 µg/mL and an MIC50 (Klebsiella pneumoniae [1]) of 0.5 µg/mL. It also gave an MIC90 (Klebsiella pneumoniae [1]) of 2 µg/mL, an MIC50 (Klebsiella pneumoniae [2]) of 0.25 µg/mL and an MIC90 (Klebsiella pneumoniae [2]) of 1 µg/mL. The MIC50 (Serratia marcescens) was 4 µg/mL, the MIC90 (Serratia marcescens) was 4 µg/mL and the MIC50 (Proteus mirabilis) was 1 µg/mL. The MIC90 (Proteus mirabilis) was 8 µg/mL, the MIC50 (Acinetobacter baumannii [3]) was 0.06 µg/mL and the MIC90 (Acinetobacter baumannii [3]) was > 8 µg/mL. It also gave an MIC50 (Acinetobacter baumannii [4]) of 0.5 µg/mL, an MIC90 (Acinetobacter baumannii [4]) of 4 µg/mL and an MIC50 (Pseudomonas aeruginosa) of 2 µg/mL. For the same compound, the MIC90 (Pseudomonas aeruginosa) was > 32 µg/mL, the MIC50 (Burkholderia cepacia) was 0.5 µg/mL and the MIC90 (Burkholderia cepacia) was > 8 µg/mL.
With `C[C@@H](O)[C@H]1C(=O)N2C(C(=O)O)=C(SCCNC=N)C[C@H]12` [IMIPENEM ANHYDROUS] the MIC50 (Staphylococcus aureus [5]) was 0.015 µg/mL (≈ 0.0501 µM), the MIC90 (Staphylococcus aureus [5]) was 0.03 µg/mL (≈ 0.1 µM) and the MIC50 (Staphylococcus aureus [6]) was 1 µg/mL (≈ 3.34 µM). It also gave an MIC90 (Staphylococcus aureus [6]) of 8 µg/mL (≈ 26.7 µM), an MIC [7] of 0.015 µg/mL (≈ 0.0501 µM) and an MIC50 [7] of 0.015 µg/mL (≈ 0.0501 µM). The MIC90 [7] was 0.015 µg/mL (≈ 0.0501 µM), the MIC50 [8] was 8 µg/mL (≈ 26.7 µM) and the MIC90 [8] was > 8 µg/mL. It also gave an MIC50 (Enterococcus faecalis [9]) of 1 µg/mL (≈ 3.34 µM), an MIC90 (Enterococcus faecalis [9]) of 4 µg/mL (≈ 13.4 µM) and an MIC50 (Enterococcus faecalis [10]) of 2 µg/mL (≈ 6.68 µM). The MIC90 (Enterococcus faecalis [10]) was 2 µg/mL (≈ 6.68 µM), the MIC50 (Enterococcus faecium [11]) was > 8 µg/mL and the MIC90 (Enterococcus faecium [11]) was > 8 µg/mL. For the same compound, the MIC (Enterococcus faecium [12]) was 8 µg/mL (≈ 26.7 µM), the MIC50 (Enterococcus faecium [12]) was 8 µg/mL (≈ 26.7 µM) and the MIC90 (Enterococcus faecium [12]) was 8 µg/mL (≈ 26.7 µM). For the same compound, the MIC (Streptococcus pneumoniae [13]) was < 0.008 µg/mL, the MIC50 (Streptococcus pneumoniae [13]) was < 0.008 µg/mL and the MIC90 (Streptococcus pneumoniae [13]) was < 0.008 µg/mL. It also gave an MIC50 (Streptococcus pneumoniae [14]) of 0.03 µg/mL (≈ 0.1 µM), an MIC90 (Streptococcus pneumoniae [14]) of 0.25 µg/mL (≈ 0.835 µM) and an MIC50 (Streptococcus pneumoniae [15]) of 0.25 µg/mL (≈ 0.835 µM). The MIC90 (Streptococcus pneumoniae [15]) was 1 µg/mL (≈ 3.34 µM), the MIC (Streptococcus agalactiae) was 0.06 µg/mL (≈ 0.2 µM) and the MIC50 (Streptococcus agalactiae) was 0.06 µg/mL (≈ 0.2 µM). It also gave an MIC90 (Streptococcus agalactiae) of 0.06 µg/mL (≈ 0.2 µM), an MIC50 (Clostridioides difficile) of 4 µg/mL (≈ 13.4 µM) and an MIC90 (Clostridioides difficile) of 8 µg/mL (≈ 26.7 µM). The MIC50 (Escherichia coli) was 0.25 µg/mL (≈ 0.835 µM), the MIC90 (Escherichia coli) was 0.25 µg/mL (≈ 0.835 µM) and the MIC50 (Klebsiella pneumoniae [1]) was 0.12 µg/mL (≈ 0.401 µM). The MIC90 (Klebsiella pneumoniae [1]) was 1 µg/mL (≈ 3.34 µM), the MIC50 (Klebsiella pneumoniae [2]) was 0.25 µg/mL (≈ 0.835 µM) and the MIC90 (Klebsiella pneumoniae [2]) was 1 µg/mL (≈ 3.34 µM). The MIC50 (Serratia marcescens) was 4 µg/mL (≈ 13.4 µM), the MIC90 (Serratia marcescens) was > 8 µg/mL and the MIC50 (Proteus mirabilis) was 4 µg/mL (≈ 13.4 µM). For the same compound, the MIC90 (Proteus mirabilis) was 8 µg/mL (≈ 26.7 µM), the MIC90 (Acinetobacter baumannii [3]) was > 32 µg/mL and the MIC50 (Acinetobacter baumannii [4]) was 4 µg/mL (≈ 13.4 µM). For the same compound, the MIC (Pseudomonas aeruginosa) was 0.05 µg/mL (≈ 0.167 µM), the MIC50 (Pseudomonas aeruginosa) was 1 µg/mL (≈ 3.34 µM) and the MIC90 (Pseudomonas aeruginosa) was > 8 µg/mL. For the same compound, the MIC (Burkholderia cepacia) was 4 µg/mL (≈ 13.4 µM), the MIC50 (Burkholderia cepacia) was 4 µg/mL (≈ 13.4 µM) and the MIC90 (Burkholderia cepacia) was > 8 µg/mL.
For `CO/N=C(\C(=O)N[C@@H]1C(=O)N2C(C(=O)O)=C(COC(C)=O)CS[C@H]12)c1csc(N)n1` [CEFOTAXIME], the MIC50 (Haemophilus influenzae) was 1 µg/mL (≈ 2.2 µM) and the MIC90 (Haemophilus influenzae) was > 4 µg/mL.
